Laboratory results: paper PMC9395488, “First-in-human study of IM156, a novel potent biguanide oxidative phosphorylation (OXPHOS) inhibitor, in patients with advanced solid tumors” (Investigational New Drugs, 2022)

Test system: patients with advanced solid tumors
Test: First-in-human phase 1 dose-escalation study: safety, DLTs, adverse events
Type: in vivo
Source text: This multicenter first-in-human dose-escalation phase 1 study (clinicaltrials.gov identifier: NCT03272256) was designed to determine the MTD or RP2D and to evaluate the safety and tolerability of IM156. Secondary endpoints included PK characteristics, efficacy assessment (objective response rate [ORR], disease control rate [DCR], duration of response [DoR] and progression-free survival [PFS]). Furthermore, exploratory objectives included identification and profiling of IM156 metabolites, evaluations of exploratory PD markers of IM156, and evaluations of any potential relationship between putative biomarkers and safety/efficacy parameters of IM156. The study was conducted in accordance with Good Clinical Practice, the International Council for Harmonisation, and guidelines governing clinical study conduct and the ethical principles originating from the Declaration of Helsinki. The study was approved by each Institutional Review Board and patients provided written informed consent. Patients were enrolled at three sites in South Korea.
The initial dose and schedule of IM156 was chosen based on animal toxicology studies. […] IM156 was administered in the fasted state, with no food for at least 2 h before and 1 h after dosing.
Three DLT-evaluable patients were enrolled at each dose level. If there were no DLTs or other prohibitive adverse events (AEs), the Safety Committee was allowed to recommend escalation to the next highest dose level. If 1 DLT occurred in the first 3 DLT-evaluable patients, enrollment in that cohort was expanded to an additional 3 DLT-evaluable patients; if ≥ 2 DLTs were reported in a cohort, that dose was considered above the MTD.
Safety was assessed through vital signs, weight, laboratory assessments, physical examinations, electrocardiogram, and reporting of AEs as graded by the National Cancer Institute’s Common Terminology Criteria for Adverse Events v4.03 (NCI-CTCAE).
DLTs were defined as the following AEs if they were attributed as related to IM156: asymptomatic grade 4 neutropenia lasting for ≥ 5 days; febrile neutropenia, regardless of grade; grade 4 thrombocytopenia or grade 3 thrombocytopenia with bleeding; any grade ≥ 3 non-hematologic AE (except grade 3 hypertension and grade 3 nausea, vomiting or diarrhea for which proper measures for prevention and treatment were not implemented, and alopecia); blood lactate levels > 5 mmol; grade ≥ 2 AE prohibiting dosing of IM156 for ≥ 21 continuous days except for alterations in serum calcium or phosphorus levels. The safety analysis includes all patients who received at least one dose of study drug.
The safety population was defined as all patients who received at least one dose of IM156. The PK population was not defined in the protocol but included all patients with sufficient PK data to perform adequate PK modeling. The efficacy population included all patients who underwent at least one tumor imaging assessment while receiving IM156. Safety was assessed using descriptive statistics (e.g., DLTs, AEs, laboratory tests, physical examination, 12-lead ECG). The incidence and number of events were reported for the DLTs observed in Cycle 1 per dose group. […] Adverse events and TRAEs were standardized with the System Organ Class and the Preferred Term using the Medical Dictionary for Regulatory Activities v23.0. In addition, TEAEs, serious adverse events (SAEs), TEAE severity, and TEAEs leading to withdrawal were presented by dose group. Efficacy data were to be presented by Waterfall and Swim Lane plots. Time to event endpoints (e.g., DoR, PFS) were determined using Kaplan–Meier estimations with the median value for each endpoint summarized.

[1] = DL4 800 mg orally every other day (n=3)
[2] = DL5 1200 mg orally every other day (n=3)

NC(=Nc1ccc(OC(F)(F)F)cc1)N=C(N)N1CCCC1 [IM156]
2: TEAE Back pain grade 2 [1] | TRAE Diarrhoea, All grades (patients) (DL5 1,200 mg QOD oral, N = 3) | TRAE Nausea, All grades (patients) (DL5 1,200 mg QOD oral, N = 3) | TRAE Vomiting, All grades (patients) (DL5 1,200 mg QOD oral, N = 3)
1: TEAE Cystitis grade 2 [1] | TEAE Pain in extremity grade 2 [1] | TEAE Urinary retention grade 2 [1] | TEAE Abdominal pain, grade 1 (DL5 1200 mg QOD (n=3)) | TEAE Alanine aminotransferase increased, grade 3 (DL5 1200 mg QOD (n=3)) | TEAE Aspartate aminotransferase increased, grade 2 (DL5 1200 mg QOD (n=3)) | TEAE Aspartate aminotransferase increased, grade 3 (DL5 1200 mg QOD (n=3)) | TEAE Asthenia, grade 1 (DL5 1200 mg QOD (n=3)) | TEAE Blood alkaline phosphatase increased, grade 2 (DL5 1200 mg QOD (n=3)) | TEAE Blood alkaline phosphatase increased, grade 3 (DL5 1200 mg QOD (n=3)) | TEAE Constipation, grade 1 (DL5 1200 mg QOD (n=3)) | TEAE Decreased appetite, grade 1 (DL5 1200 mg QOD (n=3)) | TEAE Diarrhoea, grade 1 (DL5 1200 mg QOD (n=3)) | TEAE Diarrhoea, grade 2 (DL5 1200 mg QOD (n=3)) | TEAE Fatigue, grade 2 (DL5 1200 mg QOD (n=3)) | TEAE Gamma-glutamyltransferase increased, grade 2 (DL5 1200 mg QOD (n=3)) | TEAE Gamma-glutamyltransferase increased, grade 3 (DL5 1200 mg QOD (n=3)) | TEAE Headache, grade 1 (DL5 1200 mg QOD (n=3)) | TEAE Hypoalbuminaemia, grade 2 (DL5 1200 mg QOD (n=3)) | TEAE Hypocalcemia, grade 2 (DL5 1200 mg QOD (n=3)) | TEAE Nausea, grade 1 (DL5 1200 mg QOD (n=3)) | TEAE Nausea, grade 3 (DL5 1200 mg QOD (n=3)) | TEAE Oropharyngeal pain, grade 1 (DL5 1200 mg QOD (n=3)) | TEAE Pyrexia, grade 1 (DL5 1200 mg QOD (n=3)) | TEAE Vomiting, grade 1 (DL5 1200 mg QOD (n=3)) | TEAE Vomiting, grade 2 (DL5 1200 mg QOD (n=3)) | TRAE Decreased appetite, All grades (patients) (DL5 1,200 mg QOD oral, N = 3) | TRAE Nausea, > G3 (patients) (DL5 1,200 mg QOD oral, N = 3) | TEAE Adrenal insufficiency grade 2 [2] | TEAE Anaemia grade 3 [2]
0: TEAE Anaemia grade 4 [1] | TEAE Appendicitis perforated grade 1 [1] | TEAE Appendicitis perforated grade 2 [1] | TEAE Appendicitis perforated grade 3 [1] | TEAE Appendicitis perforated grade 4 [1] | TEAE Back pain grade 1 [1] | TEAE Back pain grade 3 [1] | TEAE Back pain grade 4 [1] | TEAE Cystitis grade 1 [1] | TEAE Cystitis grade 3 [1] | TEAE Cystitis grade 4 [1] | TEAE Dry skin grade 1 [1] | TEAE Dry skin grade 2 [1] | TEAE Dry skin grade 3 [1] | TEAE Dry skin grade 4 [1] | TEAE Flank pain grade 1 [1] | TEAE Flank pain grade 2 [1] | TEAE Flank pain grade 3 [1] | TEAE Flank pain grade 4 [1] | TEAE Hypertension grade 1 [1] | TEAE Hypertension grade 2 [1] | TEAE Hypertension grade 3 [1] | TEAE Hypertension grade 4 [1] | TEAE Hypotension grade 1 [1] | TEAE Hypotension grade 2 [1] | TEAE Hypotension grade 3 [1] | TEAE Hypotension grade 4 [1] | TEAE Insomnia grade 1 [1] | TEAE Insomnia grade 2 [1] | TEAE Insomnia grade 3 [1] | TEAE Insomnia grade 4 [1] | TEAE Pain in extremity grade 1 [1] | TEAE Pain in extremity grade 3 [1] | TEAE Pain in extremity grade 4 [1] | TEAE Pruritus grade 1 [1] | TEAE Pruritus grade 2 [1] | TEAE Pruritus grade 3 [1] | TEAE Pruritus grade 4 [1] | TEAE Psychiatric disorders grade 1 [1] | TEAE Psychiatric disorders grade 2 [1] | TEAE Psychiatric disorders grade 3 [1] | TEAE Psychiatric disorders grade 4 [1] | TEAE Purpura grade 1 [1] | TEAE Purpura grade 2 [1] | TEAE Purpura grade 3 [1] | TEAE Purpura grade 4 [1] | TEAE Urinary retention grade 1 [1] | TEAE Urinary retention grade 3 [1] | TEAE Urinary retention grade 4 [1] | TEAE Urinary tract disorder grade 1 [1] | TEAE Urinary tract disorder grade 2 [1] | TEAE Urinary tract disorder grade 3 [1] | TEAE Urinary tract disorder grade 4 [1] | TRAE Abdominal Pain, > G3 (patients) (DL5 1,200 mg QOD oral, N = 3) | TRAE Abdominal Pain, All grades (patients) (DL5 1,200 mg QOD oral, N = 3) | TRAE Blood Lactic Acid increased, > G3 (patients) (DL5 1,200 mg QOD oral, N = 3) | TRAE Blood Lactic Acid increased, All grades (patients) (DL5 1,200 mg QOD oral, N = 3) | TRAE Constipation, > G3 (patients) (DL5 1,200 mg QOD oral, N = 3) | TRAE Constipation, All grades (patients) (DL5 1,200 mg QOD oral, N = 3) | TRAE Decreased appetite, > G3 (patients) (DL5 1,200 mg QOD oral, N = 3) | TRAE Diarrhoea, > G3 (patients) (DL5 1,200 mg QOD oral, N = 3) | TRAE Fatigue, > G3 (patients) (DL5 1,200 mg QOD oral, N = 3) | TRAE Fatigue, All grades (patients) (DL5 1,200 mg QOD oral, N = 3) | TRAE Insomnia, > G3 (patients) (DL5 1,200 mg QOD oral, N = 3) | TRAE Insomnia, All grades (patients) (DL5 1,200 mg QOD oral, N = 3) | TRAE Vomiting, > G3 (patients) (DL5 1,200 mg QOD oral, N = 3) | TEAE Adrenal insufficiency grade 1 [2] | TEAE Adrenal insufficiency grade 3 [2] | TEAE Adrenal insufficiency grade 4 [2] | TEAE Anaemia grade 1 [2] | TEAE Anaemia grade 2 [2] | TEAE Anaemia grade 4 [2] | TEAE Appendicitis perforated grade 1 [2] | TEAE Appendicitis perforated grade 2 [2] | TEAE Appendicitis perforated grade 3 [2] | TEAE Appendicitis perforated grade 4 [2] | TEAE Back pain grade 1 [2] | TEAE Back pain grade 2 [2] | TEAE Back pain grade 3 [2] | TEAE Back pain grade 4 [2] | TEAE Cystitis grade 1 [2] | TEAE Cystitis grade 2 [2] | TEAE Cystitis grade 3 [2] | TEAE Cystitis grade 4 [2]
